According to article PMC3365014, “Specific Recognition of p53 Tetramers by Peptides Derived from p53 Interacting Proteins” (PLoS ONE, 2012):
“Also recorded” adds a separate entry of the source.

Test system: FlAsH-labeled full-length p53 (M133L/V203A/N239Y/N268D)
Assay: Fluorescence-monitored analytical ultracentrifugation sedimentation velocity
Assay type: binding
Details: 25–50 nM FlAsH-p53, peptide up to 500 µM or solubility limit; 25 mM NaPi pH 7.2, 150 mM NaCl, 10% glycerol, 10°C
Experimental: We tested whether the peptides that bind tetrameric p53CTD can bind specifically to tetrameric p53 in a mixture of the different oligomers. Testing the specificity of the peptides for tetrameric p53 must be performed at very low p53 concentrations (<100 nM), where a significant population of dimers is present in addition to the tetramers [21]. Therefore, we used fluorescence-monitored analytical ultracentrifugation sedimentation velocity experiments using FlAsH-labeled full-length p53. The fluorescent label on p53 enables working at nanomolar protein concentrations and allows for specific detection of the protein without interference from any other molecule in the solution.
We incubated FlAsH-p53 with different concentrations of the peptides and measured the sedimentation profiles of the protein (Figure 7). […] Sedimentation coefficients of∼2 S correspond to dimers and∼3 S correspond to tetramers. Presumably, sedimentation coefficients of up to∼4 S correspond to p53 tetramers bound to one or more peptide molecules. […] Most likely higher sedimentation coefficients (>4 S) correspond to higher-order oligomers of p53.
C-terminally FlAsH-tagged (CCPGCC) p53 was expressed and reacted with FlAsH-EDT2 as described [24]. This introduces a specific fluorescent label at the carboxy terminus of p53. The protein was dialyzed against 25 mM NaPi pH = 7.2, 150 mM NaCl, 14.2 mM β-mercaptoethanol, 0.2 mg/ml BSA and 10% glycerol. […] The measurements were performed in a Beckman-Coulter Optima XL-I ultracentrifuge with an Aviv fluorescence detection system [29] in SedVel60K-FDS fluorescence velocity cells. The samples were equilibrated in the cells at 10°C for 3 hours before centrifugation. The AUC run was performed as described [23], [48] and analyzed using SedFit software [56].

Compound	AUC effect
CSCC[C@H](NC(=O)CNC(=O)[C@@H]1CCCN1C(=O)[C@H](CCC(N)=O)NC(=O)[C@H](CC(C)C)NC(=O)[C@@H](N)[C@@H](C)O)C(=O)N[C@@H](CCCNC(=N)N)C(=O)N[C@H](C(=O)N[C@@H](CCCNC(=N)N)C(=O)N[C@@H](CCSC)C(=O)N[C@@H](CC(C)C)C(=O)N[C@@H](CC(=O)O)C(=O)N[C@@H](CC(=O)O)C(=O)N[C@@H](Cc1ccc(O)cc1)C(=O)N[C@@H](CCC(=O)O)C(N)=O)C(C)C [Cul7(376–390)]	a specific shift of the tetramer peak was observed but at much higher concentrations, and no high-order oligomers were formed; also recorded: causes a shift of the tetramer peak at very high peptide concentrations; also recorded: Tetramer shift
CC[C@H](C)[C@H](NC(=O)[C@H](CCC(=O)O)NC(=O)[C@H](CCC(=O)O)NC(=O)[C@H](Cc1ccc(O)cc1)NC(=O)[C@H](CC(=O)O)NC(=O)[C@H](CC(=O)O)NC(=O)[C@H](CC(C)C)NC(=O)[C@H](CCSC)NC(=O)[C@H](CCCNC(=N)N)NC(=O)[C@@H](NC(=O)[C@H](CCCNC(=N)N)NC(=O)[C@H](CCSC)NC(=O)CN)C(C)C)C(=O)N[C@@H](CO)C(=O)N[C@@H](C)C(N)=O [PARC(386–400)]	a specific shift of the tetramer peak was observed but at much higher concentrations, and no high-order oligomers were formed; also recorded: Tetramer shift
